Laboratory results taken from ChEMBL document CHEMBL3271991, “A series of hexahydro[1,4]oxazino[3,4-a]isoquinolines as potential neuroleptics” (J Med Chem, 1978).
Calls of active or inactive are those of the source. No cut-off for these calls is given here.

Columns and labels:
Vulpes vulpes [1] = test: Neuroleptic activity in wild fox assessed as taming effect at 32 mg/kg, ip; format: functional, organism-based; set-up: dose 32 mg/kg
[2] = Toxicity in wild fox assessed as ataxia at 32 mg/kg, ip; format: organism-based; set-up: dose 32 mg/kg, route intraperitoneal; details: vulpes vulpes, in vivo
[3] = Toxicity in po dosed mouse; format: organism-based; details: in vivo
Gerbillinae [4] = test: Neuroleptic activity in gerbil assessed as escape latency time at 8 mg/kg, ip measured up to 50 mins by sidman avoidance test relative to control; format: functional; details: route intraperitoneal
[5] = Toxicity in wild fox assessed as ataxia at 16 mg/kg, ip; format: organism-based; set-up: dose 16 mg/kg, route intraperitoneal; details: vulpes vulpes, in vivo
Mus musculus [6] = test: Neuroleptic activity in ip dosed mouse assessed as blockade of prehensile reflex by measuring failure to hang measured for 5 secs; format: functional
[7] = Toxicity in ip dosed mouse; format: organism-based; details: in vivo
Gerbillinae [8] = test: Neuroleptic activity in ip dosed gerbil up to 50 mins by sidman avoidance test; format: functional; details: read-out: MED
Gerbillinae [9] = test: Neuroleptic activity in gerbil assessed as escape latency time at 16 mg/kg, ip measured up to 50 mins by sidman avoidance test relative to control; format: functional; details: route intraperitoneal
Rhesus monkey [10] = test: Toxicity in monkey assessed as ataxia at 16 mg/kg, ip; format: organism-based, Macaca mulatta; set-up: dose 16 mg/kg, route intraperitoneal; details: in vivo
Mus musculus [11] = test: Neuroleptic activity in ip dosed mouse assessed as blockade of traction reflex by measuring failure to grasp wire with hind paws measured for 5 secs; format: functional
Gerbillinae [12] = test: Neuroleptic activity in gerbil assessed as escape latency time at 2 mg/kg, ip measured up to 50 mins by sidman avoidance test relative to control; format: functional; details: route intraperitoneal
Gerbillinae [13] = test: Neuroleptic activity in gerbil assessed as escape latency time at 4 mg/kg, ip measured up to 50 mins by sidman avoidance test relative to control; format: functional; details: route intraperitoneal
Rhesus monkey [14] = test: Neuroleptic activity in monkey assessed as taming effect at 16 mg/kg, ip; format: functional, organism-based; set-up: dose 16 mg/kg; details: Macaca mulatta
Vulpes vulpes [15] = test: Neuroleptic activity in wild fox assessed as taming effect at 16 mg/kg, ip; format: functional, organism-based; set-up: dose 16 mg/kg
Felis catus = test: Induction of muscle relaxant effect in cat at 20 mg/kg, iv; format: functional, organism-based; set-up: dose 20 mg/kg
Mus musculus [16] = test: Neuroleptic activity in ip dosed mouse assessed as blockade of righting reflex by measuring failure to right to normal position measured for 30 secs; format: functional
Mus musculus [17] = test: Neuroleptic activity in ip dosed mouse assessed as blockade of corneal reflex by measuring failure to blink; format: functional; details: Cornea
Mus musculus [18] = test: Neuroleptic activity in mouse assessed as blockade of corneal reflex by measuring failure to blink at 640 mg/kg, ip; format: functional, organism-based; set-up: dose 640 mg/kg; details: Cornea
Mus musculus [19] = test: Neuroleptic activity in mouse assessed as blockade of traction reflex by measuring failure to grasp wire with hind paws at 640 mg/kg, ip measured for 5 secs; format: functional, organism-based; set-up: dose 640 mg/kg
Mus musculus [20] = test: Neuroleptic activity in mouse assessed as blockade of prehensile reflex by measuring failure to hang at 640 mg/kg, ip measured for 5 secs; format: functional, organism-based; set-up: dose 640 mg/kg
Mus musculus [21] = test: Neuroleptic activity in mouse assessed as blockade of righting reflex by measuring failure to right to normal position at 640 mg/kg, ip measured for 30 secs; format: functional, organism-based; set-up: dose 640 mg/kg
Gerbillinae [22] = test: Neuroleptic activity in gerbil assessed as escape latency time at 20 mg/kg, ip measured up to 50 mins by sidman avoidance test relative to control; format: functional; details: route intraperitoneal
Gerbillinae [23] = test: Neuroleptic activity in gerbil assessed as escape latency time at 80 mg/kg, ip measured up to 50 mins by sidman avoidance test relative to control; format: functional; details: route intraperitoneal
Gerbillinae [24] = test: Neuroleptic activity in gerbil assessed as escape latency time at 40 mg/kg, ip measured up to 50 mins by sidman avoidance test relative to control; format: functional; details: route intraperitoneal
Gerbillinae [25] = test: Neuroleptic activity in gerbil assessed as escape latency time at 10 mg/kg, ip measured up to 50 mins by sidman avoidance test relative to control; format: functional; details: route intraperitoneal
Gerbillinae [26] = test: Neuroleptic activity in gerbil assessed as escape latency time at 5 mg/kg, ip measured up to 50 mins by sidman avoidance test relative to control; format: functional; details: route intraperitoneal
Gerbillinae [27] = test: Neuroleptic activity in gerbil assessed as escape latency time at 2.5 mg/kg, ip measured up to 50 mins by sidman avoidance test relative to control; format: functional; details: route intraperitoneal
Vulpes vulpes [28] = test: Neuroleptic activity in wild fox assessed as taming effect at 4 mg/kg, ip; format: functional, organism-based; set-up: dose 4 mg/kg
Gerbillinae [29] = test: Neuroleptic activity in gerbil assessed as escape latency time at 0.5 mg/kg, ip measured up to 50 mins by sidman avoidance test relative to control; format: functional; details: route intraperitoneal
[30] = Toxicity in wild fox assessed as ataxia at 4 mg/kg, ip; format: organism-based; set-up: dose 4 mg/kg, route intraperitoneal; details: vulpes vulpes, in vivo
Gerbillinae [31] = test: Neuroleptic activity in gerbil assessed as escape latency time at 1 mg/kg, ip measured up to 50 mins by sidman avoidance test relative to control; format: functional; details: route intraperitoneal
[32] = Mus musculus, ip, read-out: ED50

## CNC1=Nc2ccccc2C(c2ccccc2)=[N+]([O-])C1
Vulpes vulpes [1]
  Activity: Active
[2]
  Activity: Non-toxic

## CCN(CC)C(=O)[C@H]1CN2CCc3cc(OC)c(OC)cc3[C@H]2CO1.Cl (racemic)
[3]
  LD50: 1400 mg/kg
Gerbillinae [4]
  Time: 0.5 s
[5]
  Activity: Non-toxic
Mus musculus [6]; [32]
  ED50: 400 mg/kg
[7]
  LD50: 1100 mg/kg
Gerbillinae [8]
  minimal effective dose: 25 mg/kg
Gerbillinae [9]
  Time: 0.8 s
Rhesus monkey [10]
  Activity: Non-toxic
Mus musculus [11]; [32]
  ED50: 100 mg/kg
Gerbillinae [12]
  Time: 0.6 s
Gerbillinae [13]
  Time: 0.8 s

## CCN(CC)C(=O)[C@H]1CN2CCc3cc(OC)c(OC)cc3[C@H]2CO1 (racemic)
Rhesus monkey [14]
  Activity: Active
Vulpes vulpes [15]
  Activity: Active
Felis catus
  Activity: Active

## COc1cc2c(cc1OC)[C@H]1CO[C@H](C#N)CN1CC2 (relative stereo)
Mus musculus [6]; [32]
  ED50: > 640 mg/kg
Mus musculus [11]; [32]
  ED50: 180 mg/kg

## CCN(CC)C(=O)[C@H]1CN2CCc3cc(OC)c(OC)cc3[C@H]2CO1 (relative stereo)
Mus musculus [6]; [32]
  ED50: 500 mg/kg
Mus musculus [11]; [32]
  ED50: 110 mg/kg

## COc1cc2c(cc1OC)[C@H]1CO[C@@H](C(=O)N3CCCC3)CN1CC2 (relative stereo)
Mus musculus [6]; [32]
  ED50: > 640 mg/kg
Mus musculus [11]; [32]
  ED50: 180 mg/kg

## COc1cc2c(cc1OC)[C@H]1CO[C@@H](C(=O)N3CCCCC3)CN1CC2 (relative stereo)
Mus musculus [16]
  ED50: 280 mg/kg
Mus musculus [6]; [32]
  ED50: 280 mg/kg
Mus musculus [17]
  ED50: 450 mg/kg
Mus musculus [11]; [32]
  ED50: 180 mg/kg

## COc1cc2c(cc1OC)[C@H]1CO[C@@H](C(=O)N3CCOCC3)CN1CC2 (relative stereo)
Mus musculus [6]; [32]
  ED50: > 640 mg/kg
Mus musculus [11]; [32]
  ED50: 200 mg/kg

## CCOC(=O)[C@H]1CN2CCc3cc(OC)c(OC)cc3[C@H]2CO1 (relative stereo)
Mus musculus [18]
  Activity: inactive
Mus musculus [19]
  Activity: inactive
Mus musculus [20]
  Activity: inactive
Mus musculus [21]
  Activity: inactive

## CCN(CC)C(=O)C1CN2CCc3cc(OC)c(OC)cc3C2CO1 (stereo in doubt; 19)
Gerbillinae [22]
  Time: 0.5 s
Mus musculus [6]; [32]
  ED50: 400 mg/kg
Gerbillinae [23]
  Time: 2.2 s
Mus musculus [11]; [32]
  ED50: 125 mg/kg
Gerbillinae [24]
  Time: 1.2 s

## CCN(CC)C(=O)C1CN2CCc3cc(OC)c(OC)cc3C2CO1 (stereo in doubt; 20)
Gerbillinae [25]
  Time: 1.2 s
Gerbillinae [22]
  Time: 2.4 s
Mus musculus [6]
  ED50: 460 mg/kg
Gerbillinae [26]
  Time: 0.6 s
Gerbillinae [27]
  Time: 0.5 s
Mus musculus [11]
  ED50: 150 mg/kg

## CN(C)CCCN1c2ccccc2Sc2ccc(Cl)cc21 [CHLORPROMAZINE]
Mus musculus [16]
  ED50: 115 mg/kg
Vulpes vulpes [28]
  Activity: Active
Gerbillinae [29]
  Time: 1 s
Mus musculus [6]; [32]
  ED50: 74 mg/kg
Mus musculus [17]
  ED50: 160 mg/kg
Mus musculus [11]; [32]
  ED50: 6 mg/kg
[30]
  Activity: Non-toxic
Gerbillinae [12]
  Time: 0.8 s
Gerbillinae [31]
  Time: 1.1 s

## CCCC(C)(COC(N)=O)COC(N)=O [MEPROBAMATE]
Mus musculus [16]
  ED50: 320 mg/kg
Mus musculus [6]; [32]
  ED50: 225 mg/kg
Mus musculus [17]
  ED50: 400 mg/kg
Mus musculus [11]; [32]
  ED50: 160 mg/kg

## CCC1(c2ccccc2)C(=O)NC(=O)NC1=O [PHENOBARBITAL]
Mus musculus [16]
  ED50: 140 mg/kg
Mus musculus [6]; [32]
  ED50: 82 mg/kg
Mus musculus [17]
  ED50: 100 mg/kg
Mus musculus [11]; [32]
  ED50: 64 mg/kg
